Source: PubChem BioAssay AID248 (DTP/NCI, 2004)
“And” between values parts separate entries of the source, which are not always exact repeats. Equal values may be shown once. Inconclusive results and toxic doses are left out. Rule as the data show it: active = T/C of 150% or more; inactive = T/C below 125%.

System: L1210 leukemia ip in BDF1 mice, survival T/C
Test: NCI In Vivo Anticancer Drug Screen. Data for tumor model L1210 Leukemia (intraperitoneal) in B6D2F1 (BDF1) mice
Settings: endpoint: mean survival time, higher = longer survival
Procedure, shortened: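 Mice bearing the transplanted tumor received compound or vehicle. Survival of the treated group was divided by that of the vehicle-treated control group to give the ratio.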

[1] = dose: 100.0 mg/kg/injection, schedule: Q04DX002 (ip), vehicle: saline with Tween-80
[2] = dose: 200.0 mg/kg/injection, schedule: Q04DX002 (ip), vehicle: saline with Tween-80
[3] = dose: 400.0 mg/kg/injection, schedule: Q04DX002 (ip), vehicle: saline with Tween-80
[4] = dose: 50.0 mg/kg/injection, schedule: Q01DX009 (ip), vehicle: Klucel (hydroxypropylcellulose) (HPC)
[5] = dose: 100.0 mg/kg/injection, schedule: Q01DX009 (ip), vehicle: Klucel (hydroxypropylcellulose) (HPC)
[6] = dose: 200.0 mg/kg/injection, schedule: Q01DX009 (ip), vehicle: Klucel (hydroxypropylcellulose) (HPC)
[7] = dose: 100.0 mg/kg/injection, schedule: Q04DX003 (ip), vehicle: saline with Tween-80
[8] = dose: 200.0 mg/kg/injection, schedule: Q04DX003 (ip), vehicle: saline with Tween-80
[9] = dose: 400.0 mg/kg/injection, schedule: Q04DX003 (ip), vehicle: saline with Tween-80
[10] = dose: 100.0 mg/kg/injection, schedule: Q04DX002 (ip), vehicle: Klucel (hydroxypropylcellulose) (HPC)
[11] = dose: 200.0 mg/kg/injection, schedule: Q04DX002 (ip), vehicle: Klucel (hydroxypropylcellulose) (HPC)
[12] = dose: 100.0 mg/kg/injection, schedule: Q01DX001 (ip), vehicle: saline
[13] = dose: 200.0 mg/kg/injection, schedule: Q01DX001 (ip), vehicle: saline
[14] = dose: 400.0 mg/kg/injection, schedule: Q04DX002 (ip), vehicle: Klucel (hydroxypropylcellulose) (HPC)
[15] = dose: 25.0 mg/kg/injection, schedule: Q01DX009 (ip), vehicle: saline
[16] = dose: 100.0 mg/kg/injection, schedule: Q04DX003 (ip), vehicle: saline
[17] = dose: 100.0 mg/kg/injection, schedule: Q04DX002 (ip), vehicle: saline
[18] = dose: 400.0 mg/kg/injection, schedule: Q01DX009 (ip), vehicle: Klucel (hydroxypropylcellulose) (HPC)
[19] = dose: 200.0 mg/kg/injection, schedule: Q04DX002 (ip), vehicle: saline
[20] = dose: 200.0 mg/kg/injection, schedule: Q04DX003 (ip), vehicle: saline
[21] = dose: 400.0 mg/kg/injection, schedule: Q01DX001 (ip), vehicle: saline
[22] = dose: 400.0 mg/kg/injection, schedule: Q04DX002 (ip), vehicle: saline
[23] = dose: 400.0 mg/kg/injection, schedule: Q04DX003 (ip), vehicle: saline

Measured: T/C

Nc1cc(F)c([N+](=O)[O-])cc1[N+](=O)[O-]
inactive: dose: 8.0 mg/kg/injection, schedule: Q01DX015 (ip), vehicle: carboxymethylcellulose (CMC) 89 % of control | dose: 16.0 mg/kg/injection, schedule: Q01DX015 (ip), vehicle: carboxymethylcellulose (CMC) 91 % of control | dose: 32.0 mg/kg/injection, schedule: Q01DX015 (ip), vehicle: carboxymethylcellulose (CMC) 102 % of control

O/N=C(/C(=N/O)c1ccccc1)c1ccccc1.O/N=C(/C(=N/O)c1ccccc1)c1ccccc1.[Ni]
inactive: [1] 97 % of control | [2] 97 % of control | [3] 93 % of control

O=[N+]([O-])c1cc(NS(=O)(=O)c2ccccc2)ccc1NS(=O)(=O)c1ccccc1
inactive: [4] 90 % of control | [5] 90 % of control | dose: 100.0 mg/kg/injection, schedule: Q04DX003 (ip), vehicle: Klucel (hydroxypropylcellulose) (HPC) 111 % of control | [6] 93 % of control | dose: 200.0 mg/kg/injection, schedule: Q04DX003 (ip), vehicle: Klucel (hydroxypropylcellulose) (HPC) 97 % of control | dose: 400.0 mg/kg/injection, schedule: Q04DX003 (ip), vehicle: Klucel (hydroxypropylcellulose) (HPC) 94 % of control

CON(C)CCOC(=O)c1ccc(N)cc1
inactive: dose: 50.0 mg/kg/injection, schedule: Q04DX002 (ip), vehicle: saline with Tween-80 104 % of control | [1] 107 % of control | [7] 89 % of control | [2] 104 % of control | [8] 95 % of control | [3] 104 % of control | [9] 99 % of control

NC(=O)COc1ccc(Cl)cc1Cl
inactive: [5] 111 % of control | [10] 112 % of control | [6] 101 % of control | [11] 100 % of control

CCN(CC)CCCCCCn1c2ccccc2c2c(C)c3cnccc3c(C)c21
inactive: dose: 25.0 mg/kg/injection, schedule: Q01DX009 (ip), vehicle: saline with Tween-80 108 % of control | dose: 50.0 mg/kg/injection, schedule: Q01DX009 (ip), vehicle: saline with Tween-80 102 % of control | dose: 100.0 mg/kg/injection, schedule: Q01DX009 (ip), vehicle: saline with Tween-80 105 % of control

CC(=O)Nc1ccc(Cc2ccc(N)cc2)cc1
inactive: [12] 108 % of control | [13] 104 % of control

CCOC(=O)C(=CNc1cc(N)nc(SC)n1)C(=O)OCC
inactive: [10] 114 % of control | [11] 103 % of control | [14] 100 % of control

CC1(C)C2CC=C(N3CCCCC3)C1C2 (centres undefined)
inactive: [7] 96 % of control | [8] 96 % of control | [9] 98 % of control

CC(=O)c1cccc(NC(=O)c2ccco2)c1
inactive: [4] 96 % of control | [5] 93 % of control | [6] 93 % of control

O=C(O)COc1ccc(Br)cn1
inactive: [10] 104 % of control | [11] 101 % of control | [14] 104 % of control

COc1cc(CCN2CCN(c3cc(C)ccc3Cl)CC2)cc(OC)c1OC
inactive: dose: 100.0 mg/kg/injection, schedule: Q01DX001 (ip), vehicle: other 93 % of control | dose: 200.0 mg/kg/injection, schedule: Q01DX001 (ip), vehicle: other 97 % of control | dose: 400.0 mg/kg/injection, schedule: Q01DX001 (ip), vehicle: other 97 % of control

N#Cc1cnn(C(N)=S)c1N
inactive: [15] 88 % of control | dose: 25.0 mg/kg/injection, schedule: Q04DX003 (ip), vehicle: saline 94 % of control | dose: 50.0 mg/kg/injection, schedule: Q01DX009 (ip), vehicle: saline 97 % of control | dose: 50.0 mg/kg/injection, schedule: Q04DX003 (ip), vehicle: saline 110 % of control | [16] 98 % of control

OCC1OC([Se][Se]C2OC(CO)C(O)C(O)C2O)C(O)C(O)C1O (centres undefined)
inactive: dose: 6.25 mg/kg/injection, schedule: Q01DX009 (ip), vehicle: saline 99 % of control | dose: 12.5 mg/kg/injection, schedule: Q01DX009 (ip), vehicle: saline 100 % of control | [15] 100 % of control | [17] 105 % of control

CC(C)(C)N(Cc1ccccc1)C(=O)Nc1ccccc1
inactive: [5] 97 % of control | [6] 110 % of control | [18] 103 % of control

CC1(C)N=C(N)N=C(N)N1NC(=O)c1ccc(Cl)cc1
inactive: [7] 100 % of control | [8] 103 % of control

COc1ccc([N+](=O)[O-])cc1NC(=O)Nc1ccccc1C(F)(F)F
inactive: [5] 88 % of control and 92 % of control | [6] 92 % of control | [18] 92 % of control

CCOC(=O)COc1cc(Cl)ccn1
inactive: [10] 110 % of control | [11] 104 % of control | [14] 104 % of control

Nc1ccnc(=S)[nH]1
inactive: dose: 100.0 mg/kg/injection, schedule: Q01DX001 (ip), vehicle: Klucel (hydroxypropylcellulose) (HPC) 92 % of control | dose: 200.0 mg/kg/injection, schedule: Q01DX001 (ip), vehicle: Klucel (hydroxypropylcellulose) (HPC) 97 % of control | dose: 250.0 mg/kg/injection, schedule: Q01DX Z (ip), vehicle: methylcellulose (MC) 101 % of control | dose: 400.0 mg/kg/injection, schedule: Q01DX001 (ip), vehicle: Klucel (hydroxypropylcellulose) (HPC) 94 % of control

O=C(O)C(F)(F)F
inactive: dose: 50.0 mg/kg/injection, schedule: Q01DX001 (ip), vehicle: water 112 % of control | dose: 50.0 mg/kg/injection, schedule: Q01DX001 (iv), vehicle: water 116 % of control | [12] 102 % of control | dose: 100.0 mg/kg/injection, schedule: Q01DX001 (iv), vehicle: water 114 % of control | dose: 100.0 mg/kg/injection, schedule: Q01DX009 (ip), vehicle: saline 100 % of control | [17] 96 % of control and 98 % of control | [16] 95 % of control | [13] 104 % of control | dose: 200.0 mg/kg/injection, schedule: Q01DX009 (ip), vehicle: saline 95 % of control and 96 % of control | [19] 94 % of control and 89 % of control | [20] 93 % of control | [21] 98 % of control | dose: 400.0 mg/kg/injection, schedule: Q01DX009 (ip), vehicle: saline 98 % of control and 90 % of control | [22] 93 % of control and 94 % of control | [23] 91 % of control

CC(C)(O)c1cnnn1CCC[CH2][Pb]([c]1ccccc1)([c]1ccccc1)[c]1ccccc1
inactive: dose: 50.0 mg/kg/injection, schedule: Q01DX001 (ip), vehicle: carboxymethylcellulose (CMC) 102 % of control | dose: 100.0 mg/kg/injection, schedule: Q01DX001 (ip), vehicle: carboxymethylcellulose (CMC) 105 % of control | dose: 200.0 mg/kg/injection, schedule: Q01DX001 (ip), vehicle: carboxymethylcellulose (CMC) 102 % of control | dose: 400.0 mg/kg/injection, schedule: Q01DX001 (ip), vehicle: carboxymethylcellulose (CMC) 96 % of control

CC(C)(N)CO
inactive: dose: 50.0 mg/kg/injection, schedule: Q01DX001 (ip), vehicle: saline 104 % of control | [12] 101 % of control | [17] 100 % of control | [16] 106 % of control | [13] 104 % of control | [19] 110 % of control | [20] 106 % of control | [21] 101 % of control | [22] 100 % of control | [23] 105 % of control

CC12CCCCC1C(C(C)(C)OC(=O)c1ccc([N+](=O)[O-])cc1)CC2 (centres undefined)
inactive: dose: 25.0 mg/kg/injection, schedule: Q04DX002 (ip), vehicle: Klucel (hydroxypropylcellulose) (HPC) 105 % of control | dose: 50.0 mg/kg/injection, schedule: Q04DX002 (ip), vehicle: Klucel (hydroxypropylcellulose) (HPC) 99 % of control | [10] 89 % of control
